# Data as given in patent US11254671B2, “Chemical compounds” (GLAXOSMITHKLINE INTELLECTUAL PROPERTY DEVELOPMENT LIMITED, priority 2017, dated 2022).
# System: type I collagen deposition in primary lung fibroblasts
# Assay: Highthroughput type I collagen deposition (scar-in-a-jar) high content screening assay
# Assay type: cell-based
# Conditions: Homo sapiens, Primary lung fibroblast, 72 h, human pulmonary fibroblasts, TGF-β 1 ng/ml, Ficoll crowding, mean of multiple experiments, read-out: mean pIC50, inhibition of type I collagen deposition (converted)
# Procedure: Example 53 Highthroughput Type I Collagen Deposition (Scar-in-a-Jar) High Content Screening Assay
# Highthroughput, cellular type I collagen deposition was measured by adapting a published method; scar-in-a-jar (Chen et al., 2009) to primary lung fibroblasts derived from human tissue and combining with high content analysis to permit fluorescent quantification of collagen deposited in the extracellular matrix (ECM). The human biological samples were sourced ethically and their research use was in accord with the terms of the informed consents
# Test compounds were dissolved in 100% DMSO to give 10 mM (stocks) and further diluted to give half log dilutions to generate an 11 point concentration response curve. 1 ul was transferred to 384-well plates (Greiner Group, Kremsmunster, Austria, Catalogue No Greine 781280r).
# Human pulmonary fibroblasts were maintained in DMEM media (Gibco, Catalogue No 21969) supplemented with 4 mM L-glutamine (Gibco Catalogue No 25030-024) and 10% heat inactivated FBS (Gibco, Catalogue No 10099-141) at 37° C. in 10% CO2. Cells were harvested and resuspended at 4×10^6 cells/ml in a T175 cell culture flask (BD Falcom, Catalogue No: 353112) containing 50 mL of culture media. After 4 days 37° C. in 10% CO2, cells were harvested and seeded at 4000 cells per well (50 μL/well) into 384-well plates (BD Falcon, Catalogue No 353962Greiner) in assay media (0.4% heat inactivated FBS, 4 mM L-glutamine). Plates were sealed with breathable seals (Sigma, Catalogue No. BEM-1). Assay plates were incubated for 72 h at 37° C. in 10% CO2.
# Assay media was supplemented with 112.5 mg/ml Ficoll 70 (Sigma, Catalogue No F2878), 75 mg/ml Ficoll 400 (Sigma, Catalogue No F4375) and 50 μg/ml ascorbic acid (Sigma, Catalogue No A8960). 30 μL assay media were added to 1 μl compound (37 μM compound concentration in 1% DMSO). Diluted compounds (10 μL) were transferred to plates containing cells and incubated for 3 h at 37° C. in 10% CO2. Transforming growth factor (TGF)-β (R&D systems, Catalogue No 100-B/CF) was reconstituted to give 10 μg/mL (stock) and further diluted in assay media containing Ficoll and ascorbic acid (1 in 3333). TGF-β was added to cell plates (1 ng/ml final) and cells incubated for 72 h at 37° C. in 10% CO2.
# Media was aspirated from cells and 30 μL/well 100% ice-cold methanol added and incubated at RT for 5 min to fix cells. Methanol was aspirated and cells washed with PBS (3×). To block and permeabilise, cells were incubated with PBS containing 1% BSA and 0.1% Triton X 100 for 20 min, followed by PBS wash (3×). Cells were incubated with mouse anti human type I collagen monoclonal antibody (Sigma, Catalogue No C2456) diluted 1:1000 in PBS for 24 h at 4° C. Cells were washed with PBS containing 0.1% Tween-20 (3×) and incubated with secondary alexa fluor 488 goat-anti-mouse antibody (Invitrogen, Catalogue No A11001, 1 in 500 in PBS) and Hoechst 33342 (Sigma, Catalogue No H21492), 1 in 1000 in PBS) for 1 h at RT, prior to washing with PBS containing 0.1% Tween (×4).
# Type I collagen immunoreactivity was detected using the INCell 2000 Analyzer (GE Healthcare, INcell 2000) set to excitation and emission wavelengths for DAPI and FITC with laser focus and exposure adjusted to appropriate levels. Images were imported and analysed using Columbus software (Perkin Elmer) and computational algorithms to quantify “total collagen area” and “cell count”.
# Data analysis was performed by determining % inhibition values for test compounds relative to the minimum (media only) and maximum responses (TGF-βstimulation) with non-linear regression analysis to determine IC50 values for test compounds.
row,SMILES,IC50 [nM]
1,"CC[C@H]1COCCN1c1cc(CS(=O)(=O)C2CC2)cc(-c2ccc3[nH]c(CNC)cc3n2)n1 [Example 10, (S)-1-(5-(4-((cyclopropylsulfonyl)methyl)-6-(3-ethylmorpholino)pyridin-2-yl)-1H-pyrrolo[3,2-b]pyridin-2-yl)-N-methylmethanamine]",39.8 to 1000
2,"CC[C@H]1COCCN1c1cc(C2(S(C)(=O)=O)CCOCC2)cc(-c2ccc3[nH]c(CN)cc3n2)n1 [Example 23, 1-(5-{6-[(3S)-3-ethylmorpholin-4-yl]-4-(4-methanesulfonyloxan-4-yl)pyridin-2-yl}-1H-pyrrolo[3,2-b]pyridin-2-yl)methanamine]",39.8 to 1000
3,CC[C@H]1COCCN1c1cc(C(C)(C)S(C)(=O)=O)cc(-c2ccc3[nH]c(CO)cc3n2)n1 [Example 32],39.8 to 1000
